Test results taken from the supplement of paper PMC10307832.

Tests used:
Test in all cases: relative viability (nuclei count vs DMSO), 5 days (fraction); higher = more cells survive
NCI-H727 = test system: NCI-H727
In short: (§1)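 For relative viability, nuclei counts in treated wells were divided by those in vehicle wells. Lung cancer cell lines had been pin-tool dosed in 1536-well plates the day after seeding and cultured for 5 days, then fixed and stained in one step (final 0.05% Triton X-100, 1% formaldehyde, 1 ug/ml Hoechst) and imaged at 4×. Doses were one drug alone or a fixed anchor-drug dose plus five library-drug doses (not always all listed) in √10 steps, and values are duplicate-plate medians.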

LOU-NH91 = test system: LOU-NH91
In short: as §1

NCI-H2170 = test system: NCI-H2170
In short: as §1

NCI-H460 = test system: NCI-H460
In short: as §1

ChaGo-K-1 = test system: ChaGo-K-1
In short: as §1

EMC-BAC-2 = test system: EMC-BAC-2
In short: as §1

NCI-H2126 = test system: NCI-H2126
In short: as §1

NCI-H647 = test system: NCI-H647
In short: as §1

NCI-H2347 = test system: NCI-H2347
In short: as §1

NCI-H2405 = test system: NCI-H2405
In short: as §1

NCI-H650 = test system: NCI-H650
In short: as §1

HOP-62 = test system: HOP-62
In short: as §1

NCI-H1437 = test system: NCI-H1437
In short: as §1

LCLC-103H = test system: LCLC-103H
In short: as §1

HCC-44 = test system: HCC-44
In short: as §1

EPLC-272H = test system: EPLC-272H
In short: as §1

NCI-H441 = test system: NCI-H441
In short: as §1

NCI-H520 = test system: NCI-H520
In short: as §1

NCI-H2009 = test system: NCI-H2009
In short: as §1

NCI-H2023 = test system: NCI-H2023
In short: as §1

SW 1573 = test system: SW 1573
In short: as §1

NCI-H23 = test system: NCI-H23
In short: as §1

O=c1[nH]c2ccccc2n1C1CCN(CCCC(c2ccc(F)cc2)c2ccc(F)cc2)CC1 [Pimozide] + C[C@@H](Oc1cc(-c2cnn(C3CCNCC3)c2)cnc1N)c1c(Cl)ccc(F)c1Cl [Crizotinib] (partner 1 µM) was tested, and the relative viability (NCI-H727; first compound 0.08 µM) was 0.958, the relative viability (NCI-H727; first compound 0.253 µM) was 0.791 and the relative viability (NCI-H727; first compound 0.8 µM) was 0.855. For the same compound, the relative viability (NCI-H727; first compound 2.53 µM) was 0.765, the relative viability (NCI-H727; first compound 8 µM) was 0.756 and the relative viability (LOU-NH91; first compound 0.08 µM) was 0.52. For the same compound, the relative viability (LOU-NH91; first compound 0.253 µM) was 0.733, the relative viability (LOU-NH91; first compound 0.8 µM) was 0.73 and the relative viability (LOU-NH91; first compound 2.53 µM) was 0.759. For the same compound, the relative viability (LOU-NH91; first compound 8 µM) was 0.581, the relative viability (NCI-H2170; first compound 0.08 µM) was 1.03 and the relative viability (NCI-H2170; first compound 0.253 µM) was 1.14. The relative viability (NCI-H2170; first compound 0.8 µM) was 1.06, the relative viability (NCI-H2170; first compound 2.53 µM) was 1.22 and the relative viability (NCI-H2170; first compound 8 µM) was 1.07. For the same compound, the relative viability (NCI-H460; first compound 0.08 µM) was 0.841, the relative viability (NCI-H460; first compound 0.253 µM) was 0.671 and the relative viability (NCI-H460; first compound 0.8 µM) was 0.899. It also gave a relative viability (NCI-H460; first compound 2.53 µM) of 0.871, a relative viability (NCI-H460; first compound 8 µM) of 0.89 and a relative viability (ChaGo-K-1; first compound 0.08 µM) of 1.18. The relative viability (ChaGo-K-1; first compound 0.253 µM) was 1.04, the relative viability (ChaGo-K-1; first compound 0.8 µM) was 1.15 and the relative viability (ChaGo-K-1; first compound 2.53 µM) was 1.02. For the same compound, the relative viability (ChaGo-K-1; first compound 8 µM) was 0.944, the relative viability (EMC-BAC-2; first compound 0.08 µM) was 0.752 and the relative viability (EMC-BAC-2; first compound 0.253 µM) was 0.79. It also gave a relative viability (EMC-BAC-2; first compound 0.8 µM) of 0.691, a relative viability (EMC-BAC-2; first compound 2.53 µM) of 0.616 and a relative viability (EMC-BAC-2; first compound 8 µM) of 0.691. For the same compound, the relative viability (NCI-H2126; first compound 0.08 µM) was 1.06, the relative viability (NCI-H2126; first compound 0.253 µM) was 0.976 and the relative viability (NCI-H2126; first compound 0.8 µM) was 0.976. For the same compound, the relative viability (NCI-H2126; first compound 2.53 µM) was 1.02, the relative viability (NCI-H2126; first compound 8 µM) was 1 and the relative viability (NCI-H647; first compound 0.08 µM) was 1.03. The relative viability (NCI-H647; first compound 0.253 µM) was 1.04, the relative viability (NCI-H647; first compound 0.8 µM) was 0.988 and the relative viability (NCI-H647; first compound 2.53 µM) was 0.919. For the same compound, the relative viability (NCI-H647; first compound 8 µM) was 0.544, the relative viability (NCI-H2347; first compound 0.08 µM) was 0.807 and the relative viability (NCI-H2347; first compound 0.253 µM) was 0.661. The relative viability (NCI-H2347; first compound 0.8 µM) was 0.545, the relative viability (NCI-H2347; first compound 2.53 µM) was 0.517 and the relative viability (NCI-H2347; first compound 8 µM) was 0.51. The relative viability (NCI-H2405; first compound 0.08 µM) was 0.831, the relative viability (NCI-H2405; first compound 0.253 µM) was 0.814 and the relative viability (NCI-H2405; first compound 0.8 µM) was 0.83. It also gave a relative viability (NCI-H2405; first compound 2.53 µM) of 0.819, a relative viability (NCI-H2405; first compound 8 µM) of 0.789 and a relative viability (NCI-H650; first compound 0.08 µM) of 0.707. It also gave a relative viability (NCI-H650; first compound 0.253 µM) of 0.711, a relative viability (NCI-H650; first compound 0.8 µM) of 0.74 and a relative viability (NCI-H650; first compound 2.53 µM) of 0.633. It also gave a relative viability (NCI-H650; first compound 8 µM) of 0.802, a relative viability (HOP-62; first compound 0.08 µM) of 1.03 and a relative viability (HOP-62; first compound 0.253 µM) of 0.859. It also gave a relative viability (HOP-62; first compound 2.53 µM) of 0.819, a relative viability (HOP-62; first compound 8 µM) of 0.991 and a relative viability (NCI-H1437; first compound 0.08 µM) of 0.949. For the same compound, the relative viability (NCI-H1437; first compound 0.253 µM) was 0.878, the relative viability (NCI-H1437; first compound 0.8 µM) was 0.898 and the relative viability (NCI-H1437; first compound 2.53 µM) was 0.903. For the same compound, the relative viability (NCI-H1437; first compound 8 µM) was 0.751, the relative viability (LCLC-103H; first compound 0.08 µM) was 1 and the relative viability (LCLC-103H; first compound 0.253 µM) was 0.967. It also gave a relative viability (LCLC-103H; first compound 0.8 µM) of 1.02, a relative viability (LCLC-103H; first compound 2.53 µM) of 1.07 and a relative viability (LCLC-103H; first compound 8 µM) of 1.12. It also gave a relative viability (HCC-44; first compound 0.08 µM) of 0.73, a relative viability (HCC-44; first compound 0.253 µM) of 0.733 and a relative viability (HCC-44; first compound 0.8 µM) of 0.743. It also gave a relative viability (HCC-44; first compound 2.53 µM) of 0.829, a relative viability (HCC-44; first compound 8 µM) of 0.75 and a relative viability (EPLC-272H; first compound 0.08 µM) of 0.789. The relative viability (EPLC-272H; first compound 0.253 µM) was 0.686, the relative viability (EPLC-272H; first compound 0.8 µM) was 0.908 and the relative viability (EPLC-272H; first compound 2.53 µM) was 0.904. For the same compound, the relative viability (EPLC-272H; first compound 8 µM) was 0.803, the relative viability (NCI-H441; first compound 0.08 µM) was 0.608 and the relative viability (NCI-H441; first compound 0.253 µM) was 0.646. It also gave a relative viability (NCI-H441; first compound 0.8 µM) of 0.652, a relative viability (NCI-H441; first compound 2.53 µM) of 0.568 and a relative viability (NCI-H441; first compound 8 µM) of 0.693. It also gave a relative viability (NCI-H520; first compound 0.08 µM) of 0.817, a relative viability (NCI-H520; first compound 0.253 µM) of 0.802 and a relative viability (NCI-H520; first compound 0.8 µM) of 0.702. The relative viability (NCI-H520; first compound 2.53 µM) was 0.819, the relative viability (NCI-H520; first compound 8 µM) was 0.675 and the relative viability (NCI-H2009; first compound 0.08 µM) was 1.02. It also gave a relative viability (NCI-H2009; first compound 0.253 µM) of 0.995, a relative viability (NCI-H2009; first compound 0.8 µM) of 1.09 and a relative viability (NCI-H2009; first compound 2.53 µM) of 1.01. The relative viability (NCI-H2009; first compound 8 µM) was 0.889, the relative viability (NCI-H2023; first compound 0.08 µM) was 0.539 and the relative viability (NCI-H2023; first compound 0.253 µM) was 0.615. It also gave a relative viability (NCI-H2023; first compound 0.8 µM) of 0.742, a relative viability (NCI-H2023; first compound 2.53 µM) of 0.524 and a relative viability (NCI-H2023; first compound 8 µM) of 0.522. It also gave a relative viability (SW 1573; first compound 0.08 µM) of 0.797, a relative viability (SW 1573; first compound 0.253 µM) of 0.759 and a relative viability (SW 1573; first compound 0.8 µM) of 0.803. It also gave a relative viability (SW 1573; first compound 2.53 µM) of 0.805, a relative viability (SW 1573; first compound 8 µM) of 0.779 and a relative viability (NCI-H23; first compound 0.08 µM) of 0.625. The relative viability (NCI-H23; first compound 0.253 µM) was 0.482, the relative viability (NCI-H23; first compound 0.8 µM) was 0.517 and the relative viability (NCI-H23; first compound 2.53 µM) was 0.573. The relative viability (NCI-H23; first compound 8 µM) was 0.524.
